Measurements reported in patent US11993586B2, “Crystalline forms of potassium channel modulators” (Novartis AG, priority 2018, dated 2024).
One block for each molecule: values may come before it.

Assay: Solid form stability (conversion on heating or storage, by 1H solution NMR and XRPD)
Assay type: physicochemical
Protocol: Form C was obtained by slow evaporation from an IPA solution at RT. […] (onset temperatures) and 93.3° C. (peak temperature) (FIG. 5).
Form D was obtained via slow evaporation from EtOH solution at RT. […] (onset temperatures) and an exotherm at 88.5° C. (peak temperature) (FIG. 8).
(onset temperatures) (FIG. 9).
Form F was obtained by evaporation of DCM solution (100 mg scale) at RT for 1 day. […] (onset temperatures) and an exotherm at 86.9° C. (peak temperature) (FIG. 11).

Solid form conversion (heated to 110° C.): converted to anhydrate Form B | Solid form conversion (stored at RT for 8 days): converted to anhydrate Form B
Structure (SMILES): Cc1ccn(-c2nc(NC3CCC(F)(F)CC3)cc(N3CCOCC3)n2)n1 [Form C]

Solid form conversion (stored at RT for a month): converted to anhydrate Form B
Structure (SMILES): Cc1ccn(-c2nc(NC3CCC(F)(F)CC3)cc(N3CCOCC3)n2)n1 [Form D]

Solid form conversion (heated to 130° C.): converted to anhydrate Form B
Structure (SMILES): Cc1ccn(-c2nc(NC3CCC(F)(F)CC3)cc(N3CCOCC3)n2)n1 [Form E]

Solid form conversion (heated to 120° C.): converted to anhydrate Form B
Structure (SMILES): Cc1ccn(-c2nc(NC3CCC(F)(F)CC3)cc(N3CCOCC3)n2)n1 [Form F]
